“And” between values parts separate entries of the source, which are not always exact repeats. Equal entries are not always repeated.
Tests used:
Assay type in all cases: in vitro ADME
[1] = test system: beagle dog liver microsomes (DLM); test: Kinetic analysis of NCMN-O-demethylation in beagle dog liver microsomes; conditions: Michaelis-Menten, substrate 1-150 µM
Experimental: (§1) The formation rates of NCHN were within the linear range of the protein concentration and incubation time. NCMN (1, 2.5, 5, 7.5, 10, 25, 50, 75, 100 and 150 µM) was incubated with HLM, MLM, RLM, DLM, PLM, CyLM (0.25mg protein/mL) as well as rat CYP1A2 (100 nM) for 30min. The apparent Km and Vmax values were determined by fitting the substrate concentrations versus the metabolite reaction velocities to the Michaelis-Menten equation (Equation (1)) and the Biphasic Kinetics equation (Equation (2)), and the results were graphically represented by Eadie-Hofstee plots. (1) v=Vmax[S]/Km+[S] (2) v=Vmax 1[S]/Kmax 1+[S]+Vmax 2[S]/Kmax 2+[S] where v is the rate of the reaction, Vmax is the maximum velocity estimate, Km is the substrate affinity constant, [S] is the substrate concentration.
(§2) The UFLC system consisted of a SIL-20ACHT auto sampler, a DGU-20A3 in-line degasser, a CBM-20A communications bus module, a CTO-20AC column oven, two LC-20AD pumps and an SPD-M20A photodiode array detector were used for analyzing the samples. The separation of NCMN and its metabolites was achieved on a Shim-pack XR-ODS (75 mm × 2.0 mm, 2.2 µm, Shimadzu, Kyoto, Japan) analytical column with an ODS guard column (5 mm × 2.0 mm, 2.2 µm, Shimadzu, Kyoto, Japan). The O-demethylation was quantified at the detector wavelength of 243 nm. […] The column oven was kept at 40 °C.

[2] = as above; conditions: beagle, dog, beagle dog liver microsomes, pH 7.4; DLM; Michaelis-Menten; substrate 1-150 µM; read-out: Km1 (Km) of NCMN-O-demethylation
Experimental: as §1, §2

[3] = test system: rat liver microsomes (RLM); test: Kinetic analysis of NCMN-O-demethylation in rat liver microsomes; conditions: biphasic kinetics, substrate 1-150 µM
Experimental: as §1, §2

[4] = Kinetic analysis of NCMN-O-demethylation in human liver microsomes; conditions: human, human liver microsomes, pH 7.4; HLM; Michaelis-Menten; substrate 1-150 µM; read-out: Km1 (Km) of NCMN-O-demethylation
Experimental: as §1, §2

[5] = test system: human liver microsomes (HLM); test: as above; conditions: Michaelis-Menten, substrate 1-150 µM
Experimental: as §1, §2

[6] = test system: mouse liver microsomes (MLM); test: Kinetic analysis of NCMN-O-demethylation in mouse liver microsomes; conditions: Michaelis-Menten, substrate 1-150 µM
Experimental: as §1, §2

[7] = as above; conditions: mouse, mouse liver microsomes, pH 7.4; MLM; Michaelis-Menten; substrate 1-150 µM; read-out: Km1 (Km) of NCMN-O-demethylation
Experimental: as §1, §2

[8] = test system: cynomolgus monkey liver microsomes (CyLM); test: Kinetic analysis of NCMN-O-demethylation in cynomolgus monkey liver microsomes; conditions: biphasic kinetics, substrate 1-150 µM
Experimental: as §1, §2

[9] = test system: minipig liver microsomes (PLM); test: Kinetic analysis of NCMN-O-demethylation in minipig liver microsomes; conditions: biphasic kinetics, substrate 1-150 µM
Experimental: as §1, §2

Km at 30 min [2]: 61.8 ± 3.52 µM
Km at 30 min [4]: 9.54 ± 0.24 µM
Km at 30 min [7]: 22.8 ± 1.22 µM
Compound: COc1ccc2c3c(cccc13)C(=O)N(CCCC(=O)O)C2=O [NCMN, N-(3-carboxypropyl)-4-methoxy-1,8-naphthalimide]
Vm1 (Vmax) of NCMN-O-demethylation [1]: 13.53 ± 0.34 nmol/min/mg
Km1 of NCMN-O-demethylation [3]: 1134.00 µM and 1134.00 ± 482.10 µM
Km2 of NCMN-O-demethylation [3]: 5.66 ± 0.80 µM
Vm1 of NCMN-O-demethylation [3]: 78.42 ± 31.17 nmol/min/mg
Vm2 of NCMN-O-demethylation [3]: 5.71 ± 0.45 nmol/min/mg
Vm1 (Vmax) of NCMN-O-demethylation [5]: 25.61 ± 0.15 nmol/min/mg
Vm1 (Vmax) of NCMN-O-demethylation [6]: 33.17 ± 0.42 nmol/min/mg
Km1 of NCMN-O-demethylation [8]: 198.70 ± 39.66 µM
Km2 of NCMN-O-demethylation [8]: 0.18 ± 0.09 µM
Vm1 of NCMN-O-demethylation [8]: 8.43 ± 0.91 nmol/min/mg
Vm2 of NCMN-O-demethylation [8]: 0.28 ± 0.08 nmol/min/mg
Km1 of NCMN-O-demethylation [9]: 242.80 ± 111.80 µM
Km2 of NCMN-O-demethylation [9]: 5.70 ± 3.27 µM
Vm1 of NCMN-O-demethylation [9]: 28.22 ± 5.82 nmol/min/mg
Vm2 of NCMN-O-demethylation [9]: 3.35 ± 1.20 nmol/min/mg

From paper PMC6695839, “Interspecies Variation in NCMN-O-Demethylation in Liver Microsomes from Various Species” (Molecules, 2019)
